Measurements published in ChEMBL document CHEMBL1201862, “PubChem BioAssay data set” (2004).
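Step 1: Grow cells in 96-well plates. Step 2: Expose to compound for 48 hours at 5 concentrations. Step 3: Interpolate endpoints linearly; if unreached, use highest concentration. At the GI50, growth is halved.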 Active and inactive are the calls of the source. Cut-off read from the data, not from the text of the source: active = GI50 up to about 1.1 µM and inactive = higher.

What was measured:
Assay in all cases: NCI anticancer screen, dose series, 48 h
[1] = tested on: HT-29
[2] = tested on: PC-3
[3] = tested on: SNB-75
[4] = tested on: SR
[5] = tested on: TK-10
[6] = tested on: MDA-MB-435
[7] = tested on: NCI/ADR-RES
[8] = tested on: DU-145
[9] = tested on: HCT-116
[10] = tested on: SF-268
[11] = tested on: RXF 393
[12] = tested on: OVCAR-8
[13] = tested on: K562
[14] = tested on: NCI-H460
[15] = tested on: A549
[16] = tested on: Hs-578T
[17] = tested on: A498
[18] = tested on: SF-295
[19] = tested on: SF-539
[20] = tested on: SNB-19
[21] = tested on: SK-MEL-28
[22] = tested on: UACC-62
[23] = tested on: SW-620
[24] = tested on: BT-549
[25] = tested on: OVCAR-5
[26] = tested on: HL-60
[27] = tested on: HOP-62
[28] = tested on: SK-OV-3
[29] = tested on: OVCAR-3
[30] = tested on: RPMI-8226
[31] = tested on: HCT-15
[32] = tested on: SK-MEL-2
[33] = tested on: IGROV-1
[34] = tested on: U-251
[35] = tested on: Malme-3M
[36] = tested on: 786-0
[37] = tested on: M14
[38] = tested on: COLO 205
[39] = tested on: MOLT-4
[40] = tested on: UACC-257
[41] = tested on: CCRF-CEM
[42] = tested on: NCI-H226
[43] = tested on: NCI-H23
[44] = tested on: KM12
[45] = tested on: SN12C
[46] = tested on: HOP-92
[47] = tested on: NCI-H522
[48] = tested on: OVCAR-4
[49] = tested on: ACHN
[50] = tested on: EKVX
[51] = tested on: MCF7
[52] = tested on: MDA-N
[53] = tested on: MDA-MB-231
[54] = tested on: UO-31
[55] = tested on: LOX IMVI
[56] = tested on: HCC 2998
[57] = tested on: SK-MEL-5
[58] = tested on: CAKI-1

SMILES: O=C(O)c1cc2cc(c1)/N=C/c1ccccc1OCc1cccc(n1)COc1ccccc1/C=N/2
- GI50 [1]: 19 µM (inactive)
- GI50 [2]: 24 µM (inactive)
- GI50 [3]: > 25 µM (inactive)
- GI50 [4]: 6.38 µM (inactive)
- GI50 [5]: 13.6 µM (inactive)
- GI50 [6]: 3.78 µM (inactive)
- GI50 [7]: 5.93 µM (inactive)
- GI50 [8]: > 25 µM (inactive)
- GI50 [9]: 9.14 µM (inactive)
- GI50 [10]: 13.2 µM (inactive)
- GI50 [11]: > 25 µM (inactive)
- GI50 [12]: > 25 µM (inactive)
- GI50 [13]: 10.1 µM (inactive)
- GI50 [14]: > 25 µM (inactive)
- GI50 [15]: > 25 µM (inactive)
- GI50 [16]: 4.94 µM (inactive)
- GI50 [17]: > 25 µM (inactive)
- GI50 [18]: 6.24 µM (inactive)
- GI50 [19]: 8.17 µM (inactive)
- GI50 [20]: 17.3 µM (inactive)
- GI50 [21]: 23.3 µM (inactive)
- GI50 [22]: 8.45 µM (inactive)
- GI50 [23]: 9.68 µM (inactive)
- GI50 [24]: 23.6 µM (inactive)
- GI50 [25]: > 25 µM (inactive)
- GI50 [26]: 12.2 µM (inactive)
- GI50 [27]: > 25 µM (inactive)
- GI50 [28]: > 25 µM (inactive)
- GI50 [29]: 5.11 µM (inactive)
- GI50 [30]: 7.41 µM (inactive)
- GI50 [31]: 8.45 µM
- GI50 [32]: 23.8 µM (inactive)
- GI50 [33]: 20.4 µM (inactive)
- GI50 [34]: 7.66 µM (inactive)
- GI50 [35]: 3.64 µM (inactive)
- GI50 [36]: 10.6 µM (inactive)
- GI50 [37]: 11.1 µM (inactive)
- GI50 [38]: > 25 µM (inactive)
- GI50 [39]: 20 µM (inactive)
- GI50 [40]: > 25 µM (inactive)
- GI50 [41]: 9.71 µM (inactive)
- GI50 [42]: 10.9 µM (inactive)
- GI50 [43]: > 25 µM (inactive)
- GI50 [44]: 13 µM (inactive)
- GI50 [45]: 14.8 µM (inactive)
- GI50 [46]: 6.73 µM (inactive)
- GI50 [47]: > 25 µM (inactive)
- GI50 [48]: 12.2 µM (inactive)
- GI50 [49]: 23.2 µM (inactive)
- GI50 [50]: > 25 µM (inactive)
- GI50 [51]: 6.79 µM (inactive)
- GI50 [52]: 4.53 µM (inactive)
- GI50 [53]: > 25 µM (inactive)
- GI50 [54]: > 25 µM (inactive)

SMILES: CC(C)(C)OC(=O)NC(CSCc1ccc(C(=O)c2ccccc2)cc1)C(=O)O (stereo not drawn)
- GI50 [1]: > 100 µM (inactive)
- GI50 [2]: > 100 µM (inactive)
- GI50 [3]: > 100 µM (inactive)
- GI50 [4]: 87.9 µM (inactive)
- GI50 [5]: > 100 µM (inactive)
- GI50 [6]: > 100 µM (inactive)
- GI50 [7]: > 100 µM (inactive)
- GI50 [8]: > 100 µM (inactive)
- GI50 [9]: > 100 µM (inactive)
- GI50 [10]: > 100 µM (inactive)
- GI50 [11]: > 100 µM (inactive)
- GI50 [12]: > 100 µM (inactive)
- GI50 [55]: > 100 µM (inactive)
- GI50 [56]: > 100 µM (inactive)
- GI50 [13]: > 100 µM (inactive)
- GI50 [14]: > 100 µM (inactive)
- GI50 [15]: > 100 µM (inactive)
- GI50 [16]: 34.9 µM (inactive)
- GI50 [17]: > 100 µM (inactive)
- GI50 [18]: > 100 µM (inactive)
- GI50 [19]: > 100 µM (inactive)
- GI50 [20]: > 100 µM (inactive)
- GI50 [21]: > 100 µM (inactive)
- GI50 [23]: > 100 µM (inactive)
- GI50 [24]: > 100 µM (inactive)
- GI50 [25]: > 100 µM (inactive)
- GI50 [26]: > 100 µM (inactive)
- GI50 [27]: > 100 µM (inactive)
- GI50 [29]: > 100 µM (inactive)
- GI50 [30]: 61.5 µM (inactive)
- GI50 [31]: > 100 µM
- GI50 [57]: > 100 µM (inactive)
- GI50 [33]: > 100 µM (inactive)
- GI50 [34]: > 100 µM (inactive)
- GI50 [35]: > 100 µM (inactive)
- GI50 [36]: > 100 µM (inactive)
- GI50 [58]: > 100 µM (inactive)
- GI50 [38]: > 100 µM (inactive)
- GI50 [39]: > 100 µM (inactive)
- GI50 [40]: > 100 µM (inactive)
- GI50 [41]: > 100 µM (inactive)
- GI50 [42]: > 100 µM (inactive)
- GI50 [43]: > 100 µM (inactive)
- GI50 [44]: > 100 µM (inactive)
- GI50 [45]: > 100 µM (inactive)
- GI50 [46]: > 100 µM (inactive)
- GI50 [47]: > 100 µM (inactive)
- GI50 [48]: 88.9 µM (inactive)
- GI50 [49]: > 100 µM (inactive)
- GI50 [50]: > 100 µM (inactive)
- GI50 [51]: > 100 µM (inactive)
- GI50 [52]: > 100 µM (inactive)
- GI50 [53]: > 100 µM (inactive)
- GI50 [54]: > 100 µM (inactive)
